Laboratory results reported in US20070173499A1 (priority 2004, published 2007).
pIC50, pKi: −log10 of the molar value. Read-outs that look alike come from different tables or passages of the source.

Legend:
5-HT2C receptor = target: T1, 5-HT2C receptor (Homo sapiens, UniProt P28335); test: radioligand binding assay for 5-HT2C receptor ([3H]-mesulergine)
T1 construct: expressed in transfected cells; host or cells: CHO-K1 (or COS-7); alternatively choroid plexus tissue
T1 sequence (P28335 33-458): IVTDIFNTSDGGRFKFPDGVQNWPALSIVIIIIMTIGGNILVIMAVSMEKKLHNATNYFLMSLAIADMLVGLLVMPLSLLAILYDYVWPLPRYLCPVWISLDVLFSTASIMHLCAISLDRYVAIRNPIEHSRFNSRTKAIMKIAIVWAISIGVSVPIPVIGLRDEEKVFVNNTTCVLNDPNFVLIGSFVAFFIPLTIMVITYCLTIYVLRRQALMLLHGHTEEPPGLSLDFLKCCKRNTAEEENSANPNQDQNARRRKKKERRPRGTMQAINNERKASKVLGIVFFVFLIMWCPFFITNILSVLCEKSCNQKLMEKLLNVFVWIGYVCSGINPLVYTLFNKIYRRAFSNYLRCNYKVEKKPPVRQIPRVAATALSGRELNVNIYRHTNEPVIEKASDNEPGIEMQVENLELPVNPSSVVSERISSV
Protocol: (§1) The effect of the compounds of the present invention on the neurochemical steady state was determined by in vitro investigations such as a radionuclide-marked radioligand binding assay for 5-HT2A (Bonhaus D. W. Br. J. Pharmacol. 1995, 115:622; Saucier C. J. Neurochem. 1997, 68:1998) and 5-HT2C receptors (Wolf W. A. J. Neurochem. 1997, 69:1449), in vitro binding assay for σ1 receptor (Thomson W. and Donn R. Arthritis Res. 2002, 4: 302-306) and by in vivo investigations in a tail suspension test (Vogel H. G. and Vogel W. H. Drug Discovery and Evaluation Pharmacological Assays, Springer 1997, 304), in amphethamine-induced hyperlocomotion in mice (Millan M. J. et al, 1998 J Pharmacol. Exp. Ther. 287: 167-186), in a forced swim test in mice (Porsolt R. D. et al. Arch. Int. Pharmacodyn. 1977, 229:327-336), in meta-chlorophenyl piperazine (m-CPP) test on rats (Drug Dev. Res. 1989, 18:119-144), and in apomorphine, tryptamine and norepinephrine (ATN) test in rats (Arch. Int. Pharmacodyn. 1977, 227:238-253).
(§2) A small concentration of a radioligand having a great affinity for binding to a receptor was incubated with a tissue sample enriched with a certain receptor (1-5 mg of tissue) in a buffered medium (0.2-5 mL). Recombinant human HT2A and HT2C receptors were expressed in CHO-K1 or COS-7 cells and were also used for competitive binding. During incubation the radioligand bound to the receptor. When a binding balance was achieved, the receptors to which the radioligand was bound were separated from those to which said ligand was not bound, and the radioactivity of the receptor/radioligand complex was measured. The interaction of the tested compounds with receptors was tested in competitive binding experiments. Various concentrations of tested compounds were added to the incubation mixture containing a prepared tissue enriched with corresponding receptors and the radioligand. The radioligand binding was inhibited by the test compounds proportionally to the affinity of a certain compound for the receptor and to the concentration of the compound.
(§3) The radioligand used for the determination of binding to 5-HT2A receptor was [^3H]-ketanserin and the tissue used was human cortex or recombinant 5-HT2A receptor expressed in CHO-K1 cells. The radioligand used for the determination of binding to 5-HT2C receptor was [^3H]-mesulergine and the tissue used was choroid plexus or recombinant 5-HT2C receptor expressed in CHO-K1 cells.

5-HT2A receptor = target: T2, 5-HT2A receptor (Homo sapiens, UniProt P28223); test: radioligand binding assay for 5-HT2A receptor ([3H]-ketanserin)
T2 construct: expressed in transfected cells; host or cells: CHO-K1 (or COS-7); alternatively human cortex tissue
T2 sequence (P28223 whole entry): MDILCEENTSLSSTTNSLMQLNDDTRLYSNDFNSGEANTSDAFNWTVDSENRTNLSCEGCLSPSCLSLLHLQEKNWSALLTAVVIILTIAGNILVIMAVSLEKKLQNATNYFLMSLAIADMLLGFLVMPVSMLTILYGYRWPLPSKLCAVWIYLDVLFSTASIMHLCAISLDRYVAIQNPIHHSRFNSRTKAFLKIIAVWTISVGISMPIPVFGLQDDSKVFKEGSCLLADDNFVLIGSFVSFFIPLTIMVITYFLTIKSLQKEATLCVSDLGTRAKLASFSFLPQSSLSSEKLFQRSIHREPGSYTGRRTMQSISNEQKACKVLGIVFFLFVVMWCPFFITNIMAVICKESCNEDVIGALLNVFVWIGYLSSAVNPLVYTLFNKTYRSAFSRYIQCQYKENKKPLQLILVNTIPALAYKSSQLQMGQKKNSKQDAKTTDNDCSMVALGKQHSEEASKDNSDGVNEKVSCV
Protocol: as §1, §2, §3

σ1 receptor = target: T3, σ1 receptor (Homo sapiens, UniProt Q99720); test: in vitro binding assay for σ1 receptor, Jurkat cell membranes, [3H]haloperidol; conditions: [3H]haloperidol 10 nM
T3 construct: endogenous in cells; host or cells: Jurkat cells (membrane fraction)
T3 sequence (Q99720 whole entry): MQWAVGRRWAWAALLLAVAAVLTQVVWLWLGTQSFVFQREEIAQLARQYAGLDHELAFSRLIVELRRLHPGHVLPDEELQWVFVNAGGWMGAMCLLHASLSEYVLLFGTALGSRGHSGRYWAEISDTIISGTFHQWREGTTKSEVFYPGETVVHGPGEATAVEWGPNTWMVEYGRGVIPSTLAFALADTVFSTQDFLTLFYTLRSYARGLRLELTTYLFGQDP
Protocol: as §1, with “227:238-253). […]” for “227:238-253).”
Binding of different radiolabeled ligans to Jurkat cell membranes was measured as described previously (Ramamoorthy et al., 1995). […]
Membranes were incubated with ligands in phosphate buffer for 3 hours at room temperature. After filter had been washed, radioactivity associated with the filter was determined by liquid scintillation spectrometry.

## CN(C)CCCOCc1cc2c(s1)-c1cc3ccccc3cc1Sc1ccccc1-2
5-HT2C receptor
  pIC50: > 6.70
  pKi: > 7.00
5-HT2A receptor
  pIC50: > 6.70
  pKi: > 7.00

## CC(CN(C)C)OCc1cc2c(s1)-c1cc3c(cc1Oc1ccccc1-2)CCCC3 (stereo not shown) [dimethyl-[2-(10,11,12,13-tetrahydro-8-oxa-1-thia-benzo[e]naphtho[3,2-h]azulen-2-ylmethoxy)-propyl]-amine]
σ1 receptor; read-out: binding affinity to σ1 receptor expressed as IC50
  pIC50: > 6.70
σ1 receptor; read-out: binding affinity to σ1 receptor, Ki
  pKi: > 7.00

## CN(C)CCCOCc1cc2c(s1)-c1ccc3ccccc3c1Sc1ccccc1-2 [dimethyl-[3-(3,10-dithia-benzo[e]naphtho[1,2-h]azulen-2-ylmethoxy)-propyl]-amine]
5-HT2C receptor; [3H]-mesulergine, choroid plexus or recombinant 5-HT2C receptor in CHO-K1 cells, read-out: binding affinity to 5-HT2C serotonin receptor expressed as IC50
  pIC50: > 6.70
5-HT2C receptor; [3H]-mesulergine, choroid plexus or recombinant 5-HT2C receptor in CHO-K1 cells, read-out: binding affinity to 5-HT2C serotonin receptor, Ki
  pKi: > 7.00
5-HT2A receptor; [3H]-ketanserin, human cortex or recombinant 5-HT2A receptor in CHO-K1 cells, read-out: binding affinity to 5-HT2A serotonin receptor expressed as IC50
  pIC50: > 6.70
5-HT2A receptor; [3H]-ketanserin, human cortex or recombinant 5-HT2A receptor in CHO-K1 cells, read-out: binding affinity to 5-HT2A serotonin receptor, Ki
  pKi: > 7.00
